Test results published in publication PMC9322451 (Clinical Pharmacology in Drug Development, 2022).
pIC50: −log10 of the molar value.

What was measured:
[1] = Phase 1 part B: safety (TEAEs); type: in vivo, human; conditions: for Any TEAE / Serious TEAE / Severe TEAE / TEAE leading to death / TEAE leading to discontinuation / Abdominal pain upper (TEAE by preferred term) / Decreased appetite (TEAE by preferred term) / Dry skin (TEAE by preferred term) / Headache (TEAE by preferred term) / Skin exfoliation (TEAE by preferred term) / Skin lesion (TEAE by preferred term): Part B, 40 mg; for participants reporting skin exfoliation / participants who experienced a TEAE / number of TEAEs reported: part B
Description: Participants were admitted to the clinical unit the day before doses were administered on days 1 and 8 and discharged on days 2 and 9, after collection of the 36‐hour postdose PK sample. The washout period between doses was 7 days. […] After dosing, participants were required to remain upright for at least 2 hours and refrain from food and drink for at least 4 hours; water was allowed after 2 hours.
Safety was assessed from the signing of informed consent until the end of study and included the following variables: treatment‐emergent adverse events (TEAEs), serious adverse events (SAEs), clinical laboratory tests (clinical chemistry, hematology, coagulation [part A only], and urinalysis), vital signs, 12‐lead ECG, primary Holter monitoring, and physical examinations (including evaluation of teeth and gingiva, and evaluation of palms and soles). Because of the mechanism of action of brensocatib, findings of hyperkeratosis, periodontitis/gingivitis, and other infections were reported as adverse events of special interest (AESIs). Renal function (part A only) was monitored by measuring serum creatinine and blood urea nitrogen, performing routine urinalysis, and measuring neutrophil gelatinase–associated lipocalin and cystatin.
Adverse events (AEs) observed before the first dosing were recorded as medical history. All medical history and AEs were coded using the Medical Dictionary for Regulatory Activities (version 21.1 or higher). A TEAE was defined as an AE that began or worsened in severity after at least 1 dose of study drug was administered. All AEs experienced by a participant were monitored until the event had resolved, any abnormal laboratory values returned to baseline or stabilized, a satisfactory explanation for the changes was identified, or the participant was lost to follow‐up.

CYP2B6 = tested on: CYP2B6; design: method as in unpublished data; conditions: ref unpublished data, read-out: half maximal inhibitory concentration; cited from earlier work
P‐glycoprotein (P‐gp) = tested on: P‐glycoprotein (P‐gp); design: method as in unpublished data; conditions: ref unpublished data; cited from earlier work
[2] = tested on: multidrug and toxin extrusion transporters; design: method as in unpublished data; conditions: ref unpublished data, read-out: half maximal inhibitory concentration; cited from earlier work

Question: Which results are given for `Cn1c(=O)oc2ccc(-c3ccc(C[C@@H](C#N)NC(=O)[C@@H]4CNCCCO4)cc3)cc21` [Brensocatib]?
Answer: Any TEAE ([1]; Japanese, Fasted (n=5)): 0 n (%); Serious TEAE ([1]; Japanese, Fasted (n=5)): 0 n (%); Severe TEAE ([1]; Japanese, Fasted (n=5)): 0 n (%); TEAE leading to death ([1]; Japanese, Fasted (n=5)): 0 n (%); TEAE leading to discontinuation ([1]; Japanese, Fasted (n=5)): 0 n (%); Abdominal pain upper (TEAE by preferred term) ([1]; Japanese, Fasted (n=10)): 0 n (%); Decreased appetite (TEAE by preferred term) ([1]; Japanese, Fasted (n=10)): 0 n (%); Dry skin (TEAE by preferred term) ([1]; Japanese, Fasted (n=10)): 0 n (%); Headache (TEAE by preferred term) ([1]; Japanese, Fasted (n=10)): 0 n (%); Skin exfoliation (TEAE by preferred term) ([1]; Japanese, Fasted (n=10)): 0 n (%); Skin lesion (TEAE by preferred term) ([1]; Japanese, Fasted (n=10)): 0 n (%); Any TEAE ([1]; Japanese, Fed (n=5)): 3 (60.0) n (%); Serious TEAE ([1]; Japanese, Fed (n=5)): 0 n (%); Severe TEAE ([1]; Japanese, Fed (n=5)): 0 n (%); TEAE leading to death ([1]; Japanese, Fed (n=5)): 0 n (%); TEAE leading to discontinuation ([1]; Japanese, Fed (n=5)): 0 n (%); Abdominal pain upper (TEAE by preferred term) ([1]; Japanese, Fed (n=9)): 1 (11.1) n (%); Decreased appetite (TEAE by preferred term) ([1]; Japanese, Fed (n=9)): 1 (11.1) n (%); Dry skin (TEAE by preferred term) ([1]; Japanese, Fed (n=9)): 0 n (%); Headache (TEAE by preferred term) ([1]; Japanese, Fed (n=9)): 1 (11.1) n (%); Skin exfoliation (TEAE by preferred term) ([1]; Japanese, Fed (n=9)): 1 (11.1) n (%); Skin lesion (TEAE by preferred term) ([1]; Japanese, Fed (n=9)): 0 n (%); Abdominal pain upper (TEAE by preferred term) ([1]; Japanese, Total (N=10)): 1 (10.0) n (%); Any TEAE ([1]; Japanese, Total (N=10)): 3 (30.0) n (%); Decreased appetite (TEAE by preferred term) ([1]; Japanese, Total (N=10)): 1 (10.0) n (%); Dry skin (TEAE by preferred term) ([1]; Japanese, Total (N=10)): 0 n (%); Headache (TEAE by preferred term) ([1]; Japanese, Total (N=10)): 1 (10.0) n (%); Serious TEAE ([1]; Japanese, Total (N=10)): 0 n (%); Severe TEAE ([1]; Japanese, Total (N=10)): 0 n (%); Skin exfoliation (TEAE by preferred term) ([1]; Japanese, Total (N=10)): 1 (10.0) n (%); Skin lesion (TEAE by preferred term) ([1]; Japanese, Total (N=10)): 0 n (%); TEAE leading to death ([1]; Japanese, Total (N=10)): 0 n (%); TEAE leading to discontinuation ([1]; Japanese, Total (N=10)): 0 n (%); Any TEAE ([1]; White, Fasted (n=5)): 1 (20.0) n (%); Serious TEAE ([1]; White, Fasted (n=5)): 0 n (%); Severe TEAE ([1]; White, Fasted (n=5)): 0 n (%); TEAE leading to death ([1]; White, Fasted (n=5)): 0 n (%); TEAE leading to discontinuation ([1]; White, Fasted (n=5)): 0 n (%); Abdominal pain upper (TEAE by preferred term) ([1]; White, Fasted (n=10)): 0 n (%); Decreased appetite (TEAE by preferred term) ([1]; White, Fasted (n=10)): 0 n (%); Dry skin (TEAE by preferred term) ([1]; White, Fasted (n=10)): 0 n (%); Headache (TEAE by preferred term) ([1]; White, Fasted (n=10)): 0 n (%); Skin exfoliation (TEAE by preferred term) ([1]; White, Fasted (n=10)): 0 n (%); Skin lesion (TEAE by preferred term) ([1]; White, Fasted (n=10)): 1 (10.0) n (%); Any TEAE ([1]; White, Fed (n=5)): 2 (40.0) n (%); Serious TEAE ([1]; White, Fed (n=5)): 0 n (%); Severe TEAE ([1]; White, Fed (n=5)): 0 n (%); TEAE leading to death ([1]; White, Fed (n=5)): 0 n (%); TEAE leading to discontinuation ([1]; White, Fed (n=5)): 0 n (%); Abdominal pain upper (TEAE by preferred term) ([1]; White, Fed (n=10)): 0 n (%); Decreased appetite (TEAE by preferred term) ([1]; White, Fed (n=10)): 0 n (%); Dry skin (TEAE by preferred term) ([1]; White, Fed (n=10)): 1 (10.0) n (%); Headache (TEAE by preferred term) ([1]; White, Fed (n=10)): 0 n (%); Skin exfoliation (TEAE by preferred term) ([1]; White, Fed (n=10)): 1 (10.0) n (%); Skin lesion (TEAE by preferred term) ([1]; White, Fed (n=10)): 0 n (%); Abdominal pain upper (TEAE by preferred term) ([1]; White, Total (N=10)): 0 n (%); Any TEAE ([1]; White, Total (N=10)): 3 (30.0) n (%); Decreased appetite (TEAE by preferred term) ([1]; White, Total (N=10)): 0 n (%); Dry skin (TEAE by preferred term) ([1]; White, Total (N=10)): 1 (10.0) n (%); Headache (TEAE by preferred term) ([1]; White, Total (N=10)): 0 n (%); Serious TEAE ([1]; White, Total (N=10)): 0 n (%); Severe TEAE ([1]; White, Total (N=10)): 0 n (%); Skin exfoliation (TEAE by preferred term) ([1]; White, Total (N=10)): 1 (10.0) n (%); Skin lesion (TEAE by preferred term) ([1]; White, Total (N=10)): 1 (10.0) n (%); TEAE leading to death ([1]; White, Total (N=10)): 0 n (%); TEAE leading to discontinuation ([1]; White, Total (N=10)): 0 n (%); participants reporting skin exfoliation ([1]; Japanese): 10.0%; participants who experienced a TEAE ([1]; Japanese): 30.0%; number of TEAEs reported ([1]; Japanese, fasted conditions): none; number of TEAEs reported ([1]; Japanese, fed conditions): 4; participants reporting skin exfoliation ([1]; White): 10.0%; participants who experienced a TEAE ([1]; White): 30.0%; number of TEAEs reported ([1]; White, fasted conditions): 1; number of TEAEs reported ([1]; White, fed conditions): 2; pIC50 (CYP2B6): < 4.52; substrate status (P‐glycoprotein (P‐gp)): substrate; pIC50 [2]: < 4.96
